Reference: PMC9293909 (Nature Communications, 2022)

How the values were obtained:
[1] = system: frog heart; assay: Isolated frog heart preparation, heart rate; conditions: adenosine 30 µM
Method: Young adult male Xenopus leavis frogs were obtained from Portsmouth Xenopus Resource Centre. […] The animals were dissected to reveal the heart and the pericardium was carefully removed. Heart contractions were measured with a force transducer (AD instruments). Heart rate was acquired via a PowerLab 26 T (AD instruments) controlled by LabChart 7 (AD instruments). The heart was regularly washed with Ringer solution and drugs were applied directly to the heart.

[2] = system: heart rate and mean arterial blood pressure; assay: Urethane-anaesthetised rat, heart rate and arterial blood pressure; conditions: adenosine 1 mg kg^−1 IV
Source text: Anaesthesia was induced in adult male Sprague–Dawley rats (230-330 g) with isofluorane (2–4%; Piramal Healthcare). The femoral vein was catheterised for drug delivery. Anaesthesia was maintained with urethane (1.2–1.7 g kg^−1; Sigma) in sterile saline delivered via the femoral vein catheter. […] The trachea was cannulated and the femoral artery catheterised, and both were connected to pressure transducers (Digitimer) to record respiratory airflow and arterial blood pressure, respectively. Blood pressure and airflow signals were amplified using the NeuroLog system (Digitimer) connected to a micro1401 interface and acquired on a computer using Spike2 software (v7.08a; Cambridge Electronic Design). […] Airflow measurements were used to calculate: tidal volume (VT; mL; pressure sensors were calibrated with a 3 mL syringe), and respiratory frequency (f; breaths min^−1; BrPM). Minute ventilation (VE; mL min^−1) was calculated as f × VT.
Cardiovascular and respiratory parameters were allowed to stabilise before experiments began. A1R agonists were administered by intravenous (IV) injection and the changes in HR, MAP, f, VT, and VE were measured. […] All injections were administered IV as a 350 µl·kg^-1 bolus.

[3] = target: T1, rA3R (Rattus norvegicus, UniProt P28647); assay: NanoBRET competition binding with AV039; conditions: displacement of AV039; read-out: pKi rA3R (converted)
T1 construct: expressed in transfected cells; host or cells: Flp-In-CHO (ThermoFisher R75807), pcDNA5/FRT
T1 sequence (P28647 1-320): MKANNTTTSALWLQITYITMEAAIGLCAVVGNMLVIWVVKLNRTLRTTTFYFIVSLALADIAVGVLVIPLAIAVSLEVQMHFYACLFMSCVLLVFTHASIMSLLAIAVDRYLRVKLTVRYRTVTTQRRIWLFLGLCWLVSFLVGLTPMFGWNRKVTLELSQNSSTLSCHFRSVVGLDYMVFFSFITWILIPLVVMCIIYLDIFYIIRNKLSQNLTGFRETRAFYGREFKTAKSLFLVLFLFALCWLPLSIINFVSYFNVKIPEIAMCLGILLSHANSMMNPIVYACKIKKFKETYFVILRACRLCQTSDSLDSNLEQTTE
Method: Here data was fitted with the ‘two-site Ki model’, build into Prism to determine high affinity and low affinity values for the unlabelled agonists. […] BRET was measured following the addition of the Nluc substrate, Furimazine (0.1 μM).

[4] = system: CA1 pyramidal cells (Goa / Gob signalling); assay: Whole-cell voltage-clamp, adenosine-induced outward current with intracellular G protein interfering peptides; format: cell-based, rat; conditions: adenosine 10 µM; control conditions
Method: A slice was transferred to the recording chamber and perfused at 3 ml min^−1 with aCSF at 32 ± 0.5 °C. Slices were visualised using IR-DIC optics with an Olympus BX151W microscope (Scientifica) and a CCD camera (Hitachi). […] Voltage and current recordings were obtained using an Axon Multiclamp 700B amplifier (Molecular Devices, USA) and digitised at 20 KHz. Data acquisition and analysis was performed using pClamp 10 (Molecular Devices, USA). For voltage-clamp experiments, CA1 pyramidal cells were held at −60 mV. Peptides to interfere with G protein signalling were introduced via the patch pipette into the recorded cell.
Drugs were made up as stock solutions (1-10 mM) and then diluted in aCSF or saline on the day of use. […] MRS1523 was purchased from Cayman Chemicals (Cambridge Bioscience Ltd., Cambridge UK). […] CA200645 and peptides for interfering with G protein signalling were obtained from Hello Bio (Bristol, UK) and were based on published sequences. […] The scrambled version was […]. […] Peptides were made up as stock solutions (2 mM) and stored at −20 °C. The stock solutions were dissolved in filtered intracellular solution just before use.

[5] = target: T2, β-arrestin2 recruitment to hA3R (Homo sapiens, UniProt P0DMS8); assay: BRET β-arrestin2 recruitment to A3R, HEK 293T; format: cell-based
T2 construct: expressed in transfected cells; host or cells: HEK 293T (ATCC CRL-3216), transient

[6] = target: T1, rA3R; assay: cAMP inhibition at rA3R (Flp-In-CHO); format: cell-based
Source text: Cell lines were maintained using standard subculturing routines as guided by the European Collection of Cell Culture (ECACC) and checked annually for mycoplasma infection using an EZ-PCR mycoplasma test kit from Biological Industries (Kibbutz Beit-Haemek, Israel). To investigate the signalling properties of the rat A3R (rA3R) and mutants of the human A1R (hA1R), stable cell lines were generated using Flp-In-CHO cells (ThermoFisher - R75807). Untagged hA1R from sigNanoLuciferase (Nluc)-A1R in pcDNA3.1+ and untagged rA3R from sigNluc-A3R in pcDNA3.1 + (both gifted by Dr Steve Briddon (University of Nottingham)) were cloned into the pcDNA5/FRT expression vector (Thermo Fisher Scientific). Mutations within the hA1R were made using the QuikChange Lightening Site-Directed Mutagenesis Kit (Agilent Technologies) in accordance with the manufacturer’s instructions. Constructs for generating Goa/b interfering and scrambled peptides were generated by PCR and cloned into the BamHI/HindIII site of pcDNA3.1- as described in Gilchrist et al.[60],. Prior to the initiator codon a Kozak sequence was included for enhanced translation. The peptide sequences used were: for Goa […], for Gob […], and for the scrambled peptide […] was used. Constructs were sequenced to confirm fidelity. Flp-In-CHO cells were generated through co-transfection of the cell line with pcDNA5/FRT expression vector (Thermo Fisher Scientific) containing the WT or mutant hA1R, or rA3R, and the Flp recombinase expressing plasmid, pOG44 (Thermo Fisher Scientific), in accordance with the manufacturer’s instructions. […] CHO cell lines expressing ARs of interest (including mutants of the hA1R) were routinely cultured in Ham’s F-12 nutrient mix supplemented with 10% foetal bovine serum (FBS), at 37 °C with 5% CO2, in a humidified atmosphere.

[7] = system: native presynaptic A1Rs, rat hippocampal slices; assay: Extracellular fEPSP recording, inhibition of excitatory synaptic transmission in hippocampal slices; format: cell-based
Method: Rats were kept on a 12-hour light-dark cycle with slices made 90 min after entering the light cycle. […] The brain was removed, cut down the midline and the two sides of the brain stuck down to a metal base plate using cyanoacrylate glue. […] Slices were stored at 34 °C for 1–6 h in aCSF (1 mM MgCl2, 2 mM CaCl2) before use.
A slice was transferred to the recording chamber, submerged in aCSF and perfused at 4–6 ml min^−1 (32 ± 0.5 °C). The slice was placed on a grid allowing perfusion above and below the tissue and all tubing was gastight (to prevent loss of oxygen). […] Field excitatory postsynaptic potentials (fEPSPs) were evoked with either an isolated pulse stimulator model 2100 (AM Systems, WA) or ISO-Flex (AMPI, Jerusalem, Israel). For fEPSPs a 10–20 min baseline was recorded at a stimulus intensity that gave 40-50% of the maximal response. […] For fEPSP slope, a 1 ms linear region after the fibre volley was measured. Extracellular recordings were made independently on two electrophysiology rigs.
Statistical significance was tested as indicated in the text using paired or unpaired two-tailed t-tests or one-way or two-way ANOVAs with repeated measures (RM) as appropriate. Bonferroni corrections for multiple comparisons were performed. All in vitro cell signalling assay data was analysed using Prism 8.4 (Graphpad software, San Diego, CA), with all concentration-response curves being fitted using a 3 parameter logistic equation to calculate response range and IC50. All cAMP data was normalised to a forskolin concentration-response curve ran in parallel to each assay.

T2 sequence (P0DMS8 whole entry): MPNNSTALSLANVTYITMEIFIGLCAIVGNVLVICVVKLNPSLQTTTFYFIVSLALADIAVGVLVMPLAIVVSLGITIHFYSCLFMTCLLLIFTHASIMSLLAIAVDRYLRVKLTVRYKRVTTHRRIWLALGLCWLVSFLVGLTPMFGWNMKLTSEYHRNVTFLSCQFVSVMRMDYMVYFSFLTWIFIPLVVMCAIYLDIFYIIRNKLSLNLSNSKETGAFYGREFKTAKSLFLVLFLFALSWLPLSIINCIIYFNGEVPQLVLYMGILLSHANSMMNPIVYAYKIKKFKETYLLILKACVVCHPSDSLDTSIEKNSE

Nc1ncnc2c1ncn2[C@@H]1O[C@H](CO)[C@@H](O)[C@H]1O [Adenosine]
reduction of heart rate [1]: 6.3 ± 0.6 BPM | heart rate after application ([1]; before 41.8 ± 1.3 BPM): 35.5 ± 1.3 BPM | reduction of HR [2]: ~ 66% | reduction of MAP [2]: ~ 47% | MAP after injection ([2]; resting 86 ± 9 mm Hg): 46 ± 4 mm Hg | HR after injection ([2]; resting 432 ± 21 BPM): 147 ± 12 BPM | Ki [3]: 1.29 µM | outward current induced by adenosine [4]: 40.6 ± 2.2 pA | β-arrestin2 recruitment by the A3R [5]: β-arrestin2 recruitment | IC50 ([6]; half-maximal response, cAMP inhibition, read-out: pIC50 rA3R (converted)): 0.0676 µM | Range rA3R ([6]; range of response as percentage of response to 10 μM forskolin): 66.05 ± 5.4% | IC50 ([7]; Rattus norvegicus, read-out: IC50 inhibition of synaptic transmission): 20 ± 4.3 µM | depression of the fEPSP ([7]; adenosine 30 µM): 66.7 ± 6.7% | depression of the fEPSP ([7]; adenosine 30 µM in the presence of 2-Cl-IB-MECA 1 µM): 67.5 ± 6.5%
